# What was measured:
# FXR = target: T1, FXR (Homo sapiens, UniProt Q96RI1); experiment: Gal4-FXR / UAS luciferase cotransfection assay; assay type: cell-based; settings: Gal4 chimeric cotransfection
# T1 sequence (Q96RI1 262-486 limits assumed): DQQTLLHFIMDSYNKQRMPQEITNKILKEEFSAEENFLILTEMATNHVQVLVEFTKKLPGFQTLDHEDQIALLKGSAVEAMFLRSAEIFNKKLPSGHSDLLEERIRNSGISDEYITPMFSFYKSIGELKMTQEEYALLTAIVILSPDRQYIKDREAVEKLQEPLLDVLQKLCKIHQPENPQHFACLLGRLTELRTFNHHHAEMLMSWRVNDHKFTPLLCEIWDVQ
# Description: (§1) Cotransfection assays were performed as previously described in HEK293 cells (Gal4 cotransfection assay or IL-17 luciferase reporter)[8]. HEK293 and the mouse lymphoma EL4 (ATCC) cells were maintained in DMEM supplemented with 10% FBS plus antibiotics (penicillin and streptomycin; Invitrogen).
# EL-4 cells = experiment: Intracellular IL-17 in PMA/ionomycin stimulated EL-4 cells (flow cytometry); assay type: cell-based, murine; settings: 5 μM, compared to vehicle treated cells
# Description: The treatment of EL4 with SR2211 repressed the Il17 gene expression to a greater extent as compared to digoxin. […] In order to measure the effect of SR2211 on IL-17 production, we determined the intracellular levels of IL-17 using flow cytometry. After the stimulation of EL-4 cells with PMA/ionomycin for 3 hr, the cells were treated with BD GolgiPlug™ (protein transport inhibitor) to allow intracellular accumulation of cytokines. After 2 hr, the cells were fixed and stained to analyze the IL-17 by flow cytometry.
# For intracellular cytokine staining, cells were stimulated with PMA (50 ng/Ml) and lonomycin (1 ug/ml) for 5 hrs. After 3 hrs of incubation, BD Golgiplug (BD Bioscience) was added and incubated for 2 hrs. Then, cells were fixed, permeabilized, and stained with PEIL17A Ab (BD Biosciences). Cell sorting was performed using LSRII (BD Biosciences). • 1. Ivanov, I I; McKenzie, B. S.; Zhou, L.; Tadokoro, C. E.; Lepelley, A.; Lafaille, J. J.; Cua, D. J.; Littman, D. R. (2006) The orphan nuclear receptor RORgammat directs the differentiation program of proinflammatory IL-17+ T helper cells. Cell 126, 1121-1133. • 2. Nakae, S.; Nambu, A.; Sudo. K.; Iwakura. Y. (2003) Suppression of immune induction of collagen-induced arthritis in IL-17-deficient mice. J Immunol 171, 6173-6177. • 3. Jetten. […]
# RORα = target: T2, RORα (Homo sapiens, UniProt P35398); experiment: Gal4-RORα LBD / UAS luciferase cotransfection assay; assay type: cell-based; settings: Gal4 chimeric cotransfection
# T2 construct: expressed in transfected cells; host or cells: HEK293T
# T2 sequence (P35398 272-510 limits assumed): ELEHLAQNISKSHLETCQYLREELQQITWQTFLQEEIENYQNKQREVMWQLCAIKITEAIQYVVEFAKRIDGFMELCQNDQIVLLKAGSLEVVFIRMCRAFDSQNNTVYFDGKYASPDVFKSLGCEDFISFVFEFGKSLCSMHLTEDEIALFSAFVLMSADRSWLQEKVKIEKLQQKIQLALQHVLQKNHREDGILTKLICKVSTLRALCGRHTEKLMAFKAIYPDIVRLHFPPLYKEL
# Description: (§2) The cells were treated with either DMSO or various compounds as indicated four hours after replating. Following additional 20 hour incubation, luciferase levels were assayed by one-step addition of 20 μL BriteLite (Perkin Elmer) and read using an Envision multilabel plate reader (Perkin Elmer).
# as §1
# VP16 = experiment: Gal4 DBD-VP16 / UAS luciferase control assay; assay type: cell-based
# Description: as §2
# LXR = target: T3, LXR (Homo sapiens, UniProt Q13133); experiment: Gal4-LXRα / UAS luciferase cotransfection assay; assay type: cell-based
# T3 sequence (Q13133 209-447 limits assumed): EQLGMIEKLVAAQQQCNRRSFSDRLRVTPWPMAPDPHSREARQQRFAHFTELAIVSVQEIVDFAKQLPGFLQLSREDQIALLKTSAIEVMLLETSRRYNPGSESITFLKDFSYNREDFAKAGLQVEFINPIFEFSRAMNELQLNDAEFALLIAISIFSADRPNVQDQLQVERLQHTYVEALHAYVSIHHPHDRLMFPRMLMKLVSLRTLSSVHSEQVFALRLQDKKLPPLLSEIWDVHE
structure (smiles),measurement,setting,value
"OC(c1ccc(-c2ccc(CN3CCN(Cc4ccncc4)CC3)cc2)c(F)c1)(C(F)(F)F)C(F)(F)F [SR2211, 1,1,1,3,3,3-hexafluoro-2-(2-fluoro-4′-((4-(pyridin-4-ylmethyl)piperazin-1-yl)methyl)-[1,1′-biphenyl]-4-yl)propan-2-ol]",effect on transcriptional activity of FXR,FXR,no effect on the transcriptional activity of FXR
same,IL-17 intracellular staining,EL-4 cells,significant inhibition of IL-17 intracellular staining
same,effect on transcriptional activity of RORα,RORα,did not have any impact on the transcriptional activity of RORα
same,luciferase activity of Gal4 DBD-VP16 (off-target effects/toxicity),VP16,no change in the luciferase activity of Gal4 DBD-VP16
same,right shift of EC50 on LXRα,LXR,more than 100 fold
same,effect on LXR activity,LXR; Gal4 chimeric cotransfection,minimal activation of LXRα
same,activation of LXRα as compared to T1317,LXR; highest concentration tested,less than 5%
